Data from ChEMBL document CHEMBL5244260, “Aldose reductase and protein tyrosine phosphatase 1B inhibitors as a promising therapeutic approach for diabetes mellitus” (Eur J Med Chem, 2020).
Blank lines part the entries; values can stand above or below the compound they belong to.

Key:
[1] = target: T1, Tyrosine-protein phosphatase non-receptor type 1 (Homo sapiens, UniProt P18031); experiment: Inhibition of PTP1B (unknown origin) using DiFMUP as substrate incubated for 30 min by fluorescence based microplate reader assay
T1 sequence (P18031 whole entry): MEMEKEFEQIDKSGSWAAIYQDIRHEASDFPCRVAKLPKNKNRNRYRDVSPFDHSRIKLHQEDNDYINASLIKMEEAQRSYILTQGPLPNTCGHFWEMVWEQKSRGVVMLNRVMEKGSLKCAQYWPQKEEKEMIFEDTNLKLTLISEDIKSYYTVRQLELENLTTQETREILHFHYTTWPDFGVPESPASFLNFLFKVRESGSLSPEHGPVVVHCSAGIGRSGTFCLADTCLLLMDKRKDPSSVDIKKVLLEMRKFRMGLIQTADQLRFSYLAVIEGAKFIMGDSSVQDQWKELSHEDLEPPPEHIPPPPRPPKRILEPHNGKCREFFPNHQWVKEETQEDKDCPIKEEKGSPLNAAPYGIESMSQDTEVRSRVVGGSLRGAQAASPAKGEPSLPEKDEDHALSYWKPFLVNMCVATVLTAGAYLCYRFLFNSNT

[2] = target: T2, Prostaglandin G/H synthase 2 (Homo sapiens, UniProt P35354); experiment: Inhibition of COX-2 (unknown origin) by spectrophotometer assay
T2 sequence (P35354 whole entry): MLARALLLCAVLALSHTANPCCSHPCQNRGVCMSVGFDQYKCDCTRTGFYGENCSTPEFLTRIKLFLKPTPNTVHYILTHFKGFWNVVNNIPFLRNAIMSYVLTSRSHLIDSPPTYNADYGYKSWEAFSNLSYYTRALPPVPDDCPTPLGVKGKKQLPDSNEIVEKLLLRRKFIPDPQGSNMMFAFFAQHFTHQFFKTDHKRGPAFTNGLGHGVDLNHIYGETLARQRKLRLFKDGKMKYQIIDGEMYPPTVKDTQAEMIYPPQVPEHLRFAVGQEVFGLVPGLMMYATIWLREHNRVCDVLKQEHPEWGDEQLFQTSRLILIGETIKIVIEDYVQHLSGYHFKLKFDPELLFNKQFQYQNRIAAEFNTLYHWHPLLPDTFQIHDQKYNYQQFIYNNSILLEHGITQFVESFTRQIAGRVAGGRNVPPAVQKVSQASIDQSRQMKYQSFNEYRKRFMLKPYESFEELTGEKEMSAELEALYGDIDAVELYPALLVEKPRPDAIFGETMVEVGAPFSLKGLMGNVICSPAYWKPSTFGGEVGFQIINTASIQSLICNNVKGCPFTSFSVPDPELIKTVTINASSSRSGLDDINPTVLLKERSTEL

[3] = target: Alpha-glucosidase (Saccharomyces cerevisiae S288c, UniProt P53341+P38158+P07265); experiment: Inhibition of yeast alpha-glucosidase using PNP-G as substrate preincubated for 10 mins followed by substrate addition by spectrophotometer microplate reader assay; type: protein assay
[4] = target: T1, Tyrosine-protein phosphatase non-receptor type 1; experiment: Inhibition of human recombinant GST-tagged PTP1B (1 to 321 residues) expressed in Escherichia coli using pNPP as substrate preincubated for 10 mins followed by substrate addition and measured after 30 mins by microplate reader assay
[5] = target: Aldo-keto reductase family 1 member B1 (Homo sapiens, UniProt P15121); experiment: Inhibition of ALR2 (unknown origin) using D,L-glyceraldehyde as substrate incubated for 10 mins in presence of NADPH by UV-spectrophotometric assay
[6] = tested on: Mus musculus; experiment: Hypoglycemic activity in alloxan monohydrate induced diabetic model of BALB/c mouse assessed as decrease in glucose level at 10 mg/kg,po measured upto 8 hrs by glucometer; type: functional; design: scale not given: the % may be the effect or the level left
[7] = target: T1, Tyrosine-protein phosphatase non-receptor type 1; experiment: Inhibition of human recombinant GST-tagged PTP1B (1 to 321 residues) expressed in Escherichia coli using pNPP as substrate by spectrophotometer assay
[8] = target: T1, Tyrosine-protein phosphatase non-receptor type 1; experiment: Inhibition of human PTP1B using pNPP as substrate incubated for 30 min by UV-Visible spectrophotometer assay
[9] = Inhibition of ALR2 in rabbit lens using D,L-glyceraldehyde as substrate preincubated for 1 min in presence of NADPH followed by substrate addition and measured after 4 mins by spectrophotometric assay; type: tissue-based, Oryctolagus cuniculus
[10] = target: T3, Peroxisome proliferator-activated receptor gamma (Homo sapiens, UniProt P37231); experiment: Agonist activity at Gal4-PPARgamma (unknown origin) transfected in HCT-116 cells incubated for 24 hrs by luciferase reporter assay; type: cell-based
T3 sequence (P37231 whole entry): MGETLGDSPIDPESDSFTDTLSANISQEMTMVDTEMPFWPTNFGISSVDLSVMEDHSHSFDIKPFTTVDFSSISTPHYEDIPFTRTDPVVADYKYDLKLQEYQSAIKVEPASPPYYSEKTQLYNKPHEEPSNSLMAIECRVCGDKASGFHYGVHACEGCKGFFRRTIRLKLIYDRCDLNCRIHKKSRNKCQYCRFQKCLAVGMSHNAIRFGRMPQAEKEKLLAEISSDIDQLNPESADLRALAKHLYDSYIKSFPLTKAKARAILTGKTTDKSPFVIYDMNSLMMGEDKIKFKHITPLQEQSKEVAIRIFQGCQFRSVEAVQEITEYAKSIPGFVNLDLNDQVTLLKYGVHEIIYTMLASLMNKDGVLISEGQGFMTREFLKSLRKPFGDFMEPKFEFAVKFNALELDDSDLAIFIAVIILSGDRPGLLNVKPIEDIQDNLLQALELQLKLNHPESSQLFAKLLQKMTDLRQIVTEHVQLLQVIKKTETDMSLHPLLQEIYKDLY

[11] = Inhibition of ALR2 in Wistar rat lens using D,L-glyceraldehyde as substrate preincubated for 1 min in presence of NADPH followed by substrate addition and measured after 4 mins by spectrophotometric assay; type: tissue-based
[12] = species on record: Homo sapiens; experiment: Selectivity ratio of IC50 for PTP1B (unknown origin) to IC50 for TCPTP (unknown origin)
[13] = target: T1, Tyrosine-protein phosphatase non-receptor type 1; experiment: Inhibition of PTP1B (unknown origin) using pNPP as substrate
[14] = target: T1, Tyrosine-protein phosphatase non-receptor type 1; experiment: Inhibition of human recombinant PTP1B using pNPP as substrate incubated for 40 min

Structure (SMILES): O=c1c2cc(O)c(O)cc2oc2cc(OCc3cccc(Cl)c3F)cc(O)c12
IC50 [1]: 0.6 µM

Structure (SMILES): O=C1NC(=O)C2(CCCCC2)N1S(=O)(=O)c1ccc(Cl)s1
IC50 [5]: 0.47 µM
Activity [6]: 79%

Structure (SMILES): O=C1/C(=C/c2ccc(-c3ccccc3)cc2)NC(=S)N1c1ccccc1
IC50 [7]: 2.9 µM

Structure (SMILES): O=C(c1ccccc1)C(Cc1ccc2cc(Br)c(C(F)(F)P(=O)(O)O)cc2c1)(c1ccc2cc(C(F)(F)P(=O)(O)O)c(Br)cc2c1)n1nnc2ccccc21 (centres undefined)
Ratio IC50 [12]: 116
IC50 [13]: 0.005 µM

Now from value to compound:

IC50 [2]: 2.81 µM
IC50 [3]: 0.11 µM
IC50 [4]: 17.8 µM
Structure (SMILES): CC(=O)c1cc2cc(-c3cccc(Cl)c3)oc2cc1O

IC50 [8]: 2.9 µM
Structure (SMILES): C[C@@]12CCC[C@](C)(C(=O)O)[C@H]1CCc1cc(OCC(=O)Oc3ccccc3C(=O)O)ccc12

IC50 [9]: 7 µM
Structure (SMILES): O=C(O)Cn1ccc2ccccc21

EC50 [10]: > 47.4 µM
IC50 [11]: 0.46 µM
Structure (SMILES): O=C(O)Cn1ccc2cc(OCc3ccccc3)ccc21

IC50 [14]: 31 µM
Structure (SMILES): O=C(NCCCN1C[C@@H](O)[C@H](O)[C@H]1CO)c1ccc([N+](=O)[O-])cc1
